According to patent US7163689B2, “Intravenous valproate for acute treatment of migraine headache” (priority 1999, dated 2007):
Several values for one entry are separate records, joined by “and”; a condition that tells them apart may be missing. Equal values may be shown once.

Key:
acute migraine headache = details: at 2 hours after administration; cited from earlier work
[1] = tested on: patients with moderate to severe headaches of 24–72 hours duration; assay: Expanded study: IV VPA vs DHE with metoclopramide IM, acute migraine headache (Example 2); format: in vivo, human; details: for % Headache Relief: 10 patients per group; for Headache Severity / Nausea/vomiting / Phonophobia / Photophobia: individual patient; for Headache Severity: grade 0-3; for Nausea/vomiting / Phonophobia / Photophobia: presence
Protocol: This Example describes an expanded study and analysis of the effectiveness of intravenous VPA for the treatment of acute migraine headache of significant duration. Patient data from the pilot study described in Example 1 has been incorporated and further analyzed in addition to new patient data. • Design. […] Patients alternately received intravenous VPA 500 mgs over 15–30 minutes, or dihydroergotamine (“DHE”) 1 mg with metoclopramide 10 mgs intramuscularly (“IM”). Age ranged from 22 to 73 years. Patients rated severity of headache, presence or absence of nausea, photophobia, and phonophobia at 1, 2 and 4 hrs. Table V and Table VI. • Results. In the 10 patients receiving DHE and metoclopramide, 40% had headache relief at 1 hour, 50% at 2 hours, 60% at 4 hours. The percent with nausea at 0, 1, 2, and 4 hours was 60%, 10%, 20%, 30% respectively, photophobia at 0, 1, 2, and 4 hours 100%, 50%, 50%, 40% respectively, phonophobia at 0, 1, 2, and 4 hours 80%, 30%, 50%, 40% respectively. In the 10 patients receiving i.v. VPA, 60% had headache relief at 1 hour, 70% at 2 hours, 70% at 4 hours, the percent with nausea at 0, 1, 2, and 4 hours was 70%, 30% 30%, 20% respectively, photophobia at 0, 1, 2, and 4 hours was 100%, 40%, 40%, 30% respectively, and phonophobia at 0, 1, 2, and 4 hours was 90%, 40%, 40%, 30% respectively. Table VII. • Conclusions. The results of the present study indicate that intravenous VPA is at least as efficacious as DHE for abortive treatment of acute migraine. Accordingly, intravenous VPA offers a treatment option for migraine headache patients who have recently used a triptan or DHE without the risk of drug-drug interaction or cardiovascular complications.

In the case of `CN1C[C@H](C(=O)N[C@]2(C)O[C@@]3(O)[C@@H]4CCCN4C(=O)[C@H](Cc4ccccc4)N3C2=O)C[C@@H]2c3cccc4[nH]cc(c34)C[C@H]21` [DHE, dihydroergotamine], the “subjects with good relief of acute migraine headache” value (acute migraine headache) is given as 70–80%, the “% experiencing Nausea” value ([1]; 0-h (baseline)) is given as 60% and the “% experiencing Phonophobia” value ([1]; 0-h (baseline)) is given as 80%. For the same molecule, the “% experiencing Photophobia” value ([1]; 0-h (baseline)) was 100%, the “% experiencing Nausea” value ([1]; 1-h) was 10% and the “% experiencing Phonophobia” value ([1]; 1-h) was 30%. For the same molecule, the “% experiencing Photophobia” value ([1]; 1-h) was 50%, the “% experiencing Nausea” value ([1]; 2-h) was 20% and the “% experiencing Phonophobia” value ([1]; 2-h) was 50%. The “% experiencing Photophobia” value ([1]; 2-h) was 50%, the “% experiencing Nausea” value ([1]; 4-h) was 30% and the “% experiencing Phonophobia” value ([1]; 4-h) was 40%. For the same molecule, the “% experiencing Photophobia” value ([1]; 4-h) was 40%, the “% Headache Relief” value ([1]; 1-h) was 40% and the “% Headache Relief” value ([1]; 2-h) was 50%. The “% Headache Relief” value ([1]; 4-h) was 60%, the “% Headache Relief” value ([1]; 24-h) was 90% and the “% experiencing Nausea” value ([1]; 24-h) was 10%. For the same molecule, the “% experiencing Phonophobia” value ([1]; 24-h) was 10%, the “Headache Severity” value ([1]; 0-h (baseline), Depacon IV 500 mg or DHE 1 mg IM + Reglan 10 mg IM) was 2 (4×) and 3 (6×) and the “Headache Severity” value ([1]; 1-h) was 3 (2×) and 0 (4×) and 2 (4×). For the same molecule, the “Headache Severity” value ([1]; 2-h) was 3 (2×) and 0 (4×) and 2 (3×) and 1, the “Headache Severity” value ([1]; 4-h) was 3 (2×) and 1 (2×) and 0 (4×) and 2 (2×) and the “Headache Severity” value ([1]; 24-h) was 1 (6×) and 2 and 0 (3×). The Nausea/vomiting ([1]; 0-h (baseline)) was 0, the Phonophobia ([1]; 0-h (baseline)) was 0 and the Nausea/vomiting ([1]; 1-h) was 0. For the same molecule, the Phonophobia ([1]; 1-h) was 0, the Photophobia ([1]; 1-h) was 0 and the Nausea/vomiting ([1]; 2-h) was 0. For the same molecule, the Phonophobia ([1]; 2-h) was 0, the Photophobia ([1]; 2-h) was 0 and the Nausea/vomiting ([1]; 4-h) was 0. The Phonophobia ([1]; 4-h) was 0, the Photophobia ([1]; 4-h) was 0 and the Nausea/vomiting ([1]; 24-h) was 0. For the same molecule, the Phonophobia ([1]; 24-h) was 0.
In the case of `CCCC(CCC)C(=O)[O-].[Na+]` [Depacon, valproate sodium], the “% experiencing Nausea” value ([1]; 0-h (baseline)) is reported as 70%, the “% experiencing Phonophobia” value ([1]; 0-h (baseline)) is reported as 90% and the “% experiencing Photophobia” value ([1]; 0-h (baseline)) is reported as 100%. For the same molecule, the “% experiencing Nausea” value ([1]; 1-h) was 30%, the “% experiencing Phonophobia” value ([1]; 1-h) was 40% and the “% experiencing Photophobia” value ([1]; 1-h) was 40%. For the same molecule, the “% experiencing Nausea” value ([1]; 2-h) was 30%, the “% experiencing Phonophobia” value ([1]; 2-h) was 40% and the “% experiencing Photophobia” value ([1]; 2-h) was 40%. For the same molecule, the “% experiencing Nausea” value ([1]; 4-h) was 20%, the “% experiencing Phonophobia” value ([1]; 4-h) was 30% and the “% experiencing Photophobia” value ([1]; 4-h) was 30%. For the same molecule, the “% Headache Relief” value ([1]; 1-h) was 60%, the “% Headache Relief” value ([1]; 2-h) was 70% and the “% Headache Relief” value ([1]; 4-h) was 70%. For the same molecule, the “% Headache Relief” value ([1]; 24-h) was 50%, the “% experiencing Nausea” value ([1]; 24-h) was 40% and the “% experiencing Phonophobia” value ([1]; 24-h) was 60%. The “Headache Severity” value ([1]; 0-h (baseline), Depacon IV 500 mg or DHE 1 mg IM + Reglan 10 mg IM, sodium) was 3 (5×) and 2 (5×), the “Headache Severity” value ([1]; 1-h, sodium) was 1 (4×) and 0 (2×) and 2 (2×) and 3 (2×) and the “Headache Severity” value ([1]; 2-h, sodium) was 1 (6×) and 2 (3×) and 0. For the same molecule, the “Headache Severity” value ([1]; 4-h, sodium) was 0 (3×) and 1 (4×) and 2 (2×) and 3, the “Headache Severity” value ([1]; 24-h, sodium) was 1 (3×) and 2 (4×) and 3 and 0 (2×) and the Nausea/vomiting ([1]; 0-h (baseline), sodium) was 0. The Phonophobia ([1]; 0-h (baseline), sodium) was 0, the Nausea/vomiting ([1]; 1-h, sodium) was 0 and the Phonophobia ([1]; 1-h, sodium) was 0. It also gave a Photophobia ([1]; 1-h, sodium) of 0, a Nausea/vomiting ([1]; 2-h, sodium) of 0 and a Phonophobia ([1]; 2-h, sodium) of 0. It also gave a Photophobia ([1]; 2-h, sodium) of 0, a Nausea/vomiting ([1]; 4-h, sodium) of 0 and a Phonophobia ([1]; 4-h, sodium) of 0. The Photophobia ([1]; 4-h, sodium) was 0, the Nausea/vomiting ([1]; 24-h, sodium) was 0 and the Phonophobia ([1]; 24-h, sodium) was 0. It also gave a Photophobia ([1]; 24-h, sodium) of 0.
